One test addresses LRRK2 G2019S (Homo sapiens (Human), UniProt Q5S007, G2019S). Description: Kinase inhibition assay (ADP-Glo, LRRKtide substrate). The format is biochemical. As to conditions: LRRK2 G2019S protein, room temperature. Here is the method: Kinase LRRK2 G2019S protein was derived from Carna, LRRKtide was derived from Signalchem, ATP was derived from Promega, and DMSO was derived from Sigma.
All assays were performed at room temperature. The test compounds were dissolved and diluted, and then added to a 384-well plate. 2.5 μL of 2× kinase reaction buffer was added, and the mixture was centrifuged. 2.5 μL of a mixture of 2× substrate and ATP was added, and the mixture was centrifuged. 4 μL of ADP-Glo reagent was added, and the mixture was incubated at room temperature for 40 min. 8 μL of […] was added, and the mixture was incubated at room temperature for 40 min. Then, the data were read using the Envision 2104 multi-label Reader.
For orientation: ADP-Glo first removes unused ATP, then detects ADP through luciferase.

Test [1] addresses LRRK2 (Homo sapiens (Human), UniProt Q5S007). Kind of test: HEK293 cell kinase inhibition assay (NanoBRET). The note with it: HEK293 cells. The format is cell-based. Here is the method:
(§1) HEK293 cells were cultured, and collected by adding trypsin. Culture medium was added, and the cell density was adjusted to 2×10^5/mL. Liposome-DNA complexes were constructed and mixed with HEK293 cells at a ratio of 1:20. The mixture was added to a 384-well plate, and incubated at 37° C. for 20-30 h. A mixed solution of enzyme substrate and the test compound was added, and the mixture was incubated at room temperature for 2-3 min. NanoBRET reagent (Promega) was added, and bioluminescence was measured within 10 min using the microplate reader (Envision 2104) at 450 nm for the donor luciferase protein (donor) and 610 nm for the acceptor fluorescent group (acceptor). The BRET ratio for the test compounds was calculated using the following formula, including a background correction option.
(§2) [formula] • Acceptorsample: 610 nm fluorescence with the test compound; • Donorsample: 450 nm fluorescence with the test compound; • Acceptorno-tracer control: 610 nm fluorescence of background (without the test compound); • Donorno-tracer control: 450 nm fluorescence of background (without the test compound)
(§3) The inhibitory activity of the test compounds on cellular LRRK2 enzyme was calculated by the following formula: […]
(§4) The IC50 values of the test compounds against cellular LRRK2 enzyme were calculated using Graphpad software. Non-linear regression fitting (dose-effect−variable slope method) was performed on the percentage inhibition rate versus logarithmic concentration curve of the compounds.
(§5) [formula] • X: logarithmic inhibitor concentration; Y: percentage inhibition rate; Bottom: a minimum value; Top: a maximum value; Hill Slope: hill slope

The next test addresses LRRK2-2019S (Homo sapiens (Human), UniProt Q5S007, G2019S). Description: HEK293 cell kinase inhibition assay (NanoBRET). The test is classed as cell-based. As to conditions: HEK293 cells. Here is the method: as §1, §2, §3, §4, §5
(In BRET a luciferase serves as donor, and the signal depends on an acceptor being close.)

In another test the target is LRRK2-R1441C (Homo sapiens (Human), UniProt Q5S007, R1441C). Kind of test: HEK293 cell kinase inhibition assay (NanoBRET). The test is classed as cell-based. The note with it: HEK293 cells. On the procedure: as §1, §2, §3, §4, §5
The subject of test [2] is LRRK2. Description: In vivo efficacy, oral administration: LRRK2 phosphorylation (pS935-LRRK2/LRRK2) in brain tissue by Western blot. Also noted: species or system LRRK2-G2019S mice. The source says: 1. Objective: The study aims to determine the in vivo efficacy of compound 527 by observing the inhibition effect of compound 527 on the phosphorylation level of LRRK2 in the brains of G2019S mutant LRRK2 gene knock-in mice following oral administration.
(1) Animals: B6.Cg-Tg(Lrrk2*G2019S)2Yue/J transgenic mice were purchased from Jackson Laboratory. The mice were bred with C57BL/6J mice to produce LRRK2 heterozygote mice carrying the G2019S mutation (LRRK2-G2019S mice). The mice included an equal number of male and female individuals, with body weights ranging from 16-20 g and ages between 15-17 weeks.
(2) Grouping and administration: The mice were randomly divided into 5 experimental groups based on their body weights. Each group consisted of 8 animals, with 4 males and 4 females. The specific administration for each experimental group is detailed in the following Table 1. Group G1 served as the vehicle control group. For group G2 to group G5, compound 527 was administered at doses of 1 mg/kg, 3 mg/kg, 10 mg/kg, and 30 mg/kg, respectively.
(3) Intracerebral LRRK2 activity assay: One hour after administration, the animals were euthanized using CO2. The brain tissues were collected, rapidly frozen in liquid nitrogen, and then cryopreserved at −80 C until subsequent experiments. The brain tissues were homogenized in an RIPA buffer containing cOmplete™ protease inhibitor mixture (Roche, 04693124001) and phosphatase inhibitor mixture 2 (sigma, R^0278). Protein quantification was performed using the BCA method. The phosphorylation level of LRRK2 at pS935 site (primary antibody Anti-LRRK2 (phospho S935) antibody, abcam, ab133450), and the total LRRK2 level (primary antibody Anti-LRRK2 antibody, Abcam, ab33518) were detected by Western blot method. The activity level of LRRK2 in the brain was represented by the phosphorylation level at S935 site of LRRK2, i.e., the ratio of pS935-LRRK2 to total LRRK2 (pS935-LRRK2/LRRK2).
(In general: A western blot detects proteins with antibodies after separation by electrophoresis.)

[3] abbreviates: LRRK2-G2019S mice, oral gavage, single dose, brain collected 1 h after administration.

One may read the IC50 as the midpoint of a concentration-inhibition curve.

Sequence of LRRK2 G2019S (Q5S007 whole entry G2019S): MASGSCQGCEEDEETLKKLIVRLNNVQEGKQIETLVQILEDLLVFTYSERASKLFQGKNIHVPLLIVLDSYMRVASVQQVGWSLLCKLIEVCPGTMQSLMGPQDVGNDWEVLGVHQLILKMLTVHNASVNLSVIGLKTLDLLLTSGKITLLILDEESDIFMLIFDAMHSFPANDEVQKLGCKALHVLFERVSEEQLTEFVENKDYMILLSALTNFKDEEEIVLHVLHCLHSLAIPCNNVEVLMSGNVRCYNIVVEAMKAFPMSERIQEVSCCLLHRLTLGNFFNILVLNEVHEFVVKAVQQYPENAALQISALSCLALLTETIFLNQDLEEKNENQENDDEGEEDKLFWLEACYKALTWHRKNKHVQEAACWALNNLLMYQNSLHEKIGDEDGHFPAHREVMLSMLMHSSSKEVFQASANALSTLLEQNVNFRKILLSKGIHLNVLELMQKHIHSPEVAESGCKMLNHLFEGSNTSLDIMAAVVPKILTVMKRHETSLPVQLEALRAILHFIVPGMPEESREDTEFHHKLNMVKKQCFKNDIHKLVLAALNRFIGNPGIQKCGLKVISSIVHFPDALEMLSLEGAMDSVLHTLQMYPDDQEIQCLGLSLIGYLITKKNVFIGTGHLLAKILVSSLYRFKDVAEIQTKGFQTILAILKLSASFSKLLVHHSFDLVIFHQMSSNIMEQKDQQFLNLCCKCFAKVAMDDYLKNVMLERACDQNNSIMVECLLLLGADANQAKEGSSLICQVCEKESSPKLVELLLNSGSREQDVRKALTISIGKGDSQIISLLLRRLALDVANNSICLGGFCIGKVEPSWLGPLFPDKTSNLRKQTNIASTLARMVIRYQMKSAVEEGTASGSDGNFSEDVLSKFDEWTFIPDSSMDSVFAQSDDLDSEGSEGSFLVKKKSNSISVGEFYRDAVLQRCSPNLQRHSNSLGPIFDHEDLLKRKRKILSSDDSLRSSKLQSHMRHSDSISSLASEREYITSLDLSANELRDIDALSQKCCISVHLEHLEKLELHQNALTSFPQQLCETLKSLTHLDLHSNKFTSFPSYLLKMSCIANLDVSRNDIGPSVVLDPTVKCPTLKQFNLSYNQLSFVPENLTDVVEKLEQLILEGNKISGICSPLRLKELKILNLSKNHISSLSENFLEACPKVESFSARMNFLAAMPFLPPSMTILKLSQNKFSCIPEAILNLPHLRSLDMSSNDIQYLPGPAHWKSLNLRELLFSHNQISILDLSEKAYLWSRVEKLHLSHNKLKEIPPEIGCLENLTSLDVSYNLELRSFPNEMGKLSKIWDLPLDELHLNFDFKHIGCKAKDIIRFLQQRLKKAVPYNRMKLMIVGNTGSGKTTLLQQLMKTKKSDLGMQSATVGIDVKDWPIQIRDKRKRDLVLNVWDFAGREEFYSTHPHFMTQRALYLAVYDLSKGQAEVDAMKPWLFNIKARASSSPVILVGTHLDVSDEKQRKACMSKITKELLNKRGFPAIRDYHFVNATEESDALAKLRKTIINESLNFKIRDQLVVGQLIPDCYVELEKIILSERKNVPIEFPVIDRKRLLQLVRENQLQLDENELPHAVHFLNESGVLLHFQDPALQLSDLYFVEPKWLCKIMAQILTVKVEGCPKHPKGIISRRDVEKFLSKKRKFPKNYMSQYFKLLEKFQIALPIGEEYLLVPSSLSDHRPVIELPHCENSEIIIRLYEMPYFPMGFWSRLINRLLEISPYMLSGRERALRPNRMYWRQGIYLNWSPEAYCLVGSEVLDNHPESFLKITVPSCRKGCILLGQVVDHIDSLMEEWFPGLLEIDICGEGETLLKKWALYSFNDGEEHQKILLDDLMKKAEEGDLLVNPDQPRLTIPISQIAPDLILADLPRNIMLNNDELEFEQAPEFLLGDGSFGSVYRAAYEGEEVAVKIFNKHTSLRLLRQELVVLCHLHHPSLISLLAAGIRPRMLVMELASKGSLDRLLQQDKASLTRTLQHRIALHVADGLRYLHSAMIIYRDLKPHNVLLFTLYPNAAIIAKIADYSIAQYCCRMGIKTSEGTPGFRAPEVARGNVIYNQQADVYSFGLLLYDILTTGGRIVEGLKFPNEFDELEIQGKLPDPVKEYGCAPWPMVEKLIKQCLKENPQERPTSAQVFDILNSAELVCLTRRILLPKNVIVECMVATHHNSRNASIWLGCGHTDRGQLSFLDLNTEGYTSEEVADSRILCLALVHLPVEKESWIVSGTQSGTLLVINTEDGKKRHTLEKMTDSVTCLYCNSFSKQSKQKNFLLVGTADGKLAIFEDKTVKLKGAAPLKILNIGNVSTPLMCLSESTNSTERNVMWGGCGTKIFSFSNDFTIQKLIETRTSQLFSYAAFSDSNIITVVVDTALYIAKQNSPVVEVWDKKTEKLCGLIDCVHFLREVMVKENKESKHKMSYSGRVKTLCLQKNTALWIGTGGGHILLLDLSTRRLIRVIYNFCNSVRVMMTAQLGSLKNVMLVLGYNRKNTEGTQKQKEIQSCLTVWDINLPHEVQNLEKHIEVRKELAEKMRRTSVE
Sequence of LRRK2 (Homo sapiens (Human), UniProt Q5S007) (Q5S007 whole entry): as the sequence (Q5S007 whole entry G2019S) above, with S2019G counted along it
Sequence of LRRK2-2019S (Q5S007 whole entry G2019S): as the sequence (Q5S007 whole entry G2019S) above
Sequence of LRRK2-R1441C (Q5S007 whole entry R1441C): as the sequence (Q5S007 whole entry G2019S) above, with R1441C, S2019G counted along it

The compound `O[C@@H]1C[C@H](O)CN(c2cc(-c3n[nH]c4ccnc(NCC(F)(F)F)c34)ncn2)C1` [Compound 526, (3S,5R)-1-(6-(4-((2,2,2-trifluoroethyl)amino)-1H-pyrazolo[4,3-c]pyridin-3-yl)pyrimidin-4-yl)piperidine-3,5-diol] displayed an IC50 on LRRK2 G2019S of 5.1 nM.
Same read-out and setting: the value for `C[C@@H]1C[C@H](Nc2nccc3[nH]nc(-c4cc(N5C[C@@H]6C[C@H]5CO6)ncn4)c23)C[C@H](C)O1` [Compound 424] was 3.7 nM.
Take `C[C@@H]1CN(c2cc(-c3n[nH]c4ccnc(NCC(F)(F)F)c34)ncn2)C[C@H](C)O1` [Compound 447]: the IC50 on LRRK2 G2019S amounted to 2.8 nM; against LRRK2 [1], 247 nM; against LRRK2-2019S, 97.5 nM; on LRRK2-R1441C, 297 nM.
Take `N#CC1(c2cc(-c3n[nH]c4ccnc(NCC(F)(F)F)c34)ncn2)CCC1` [Compound 523, 1-(6-(4-((2,2,2-trifluoroethyl)amino)-1H-pyrazolo[4,3-c]pyridin-3-yl)pyrimidin-4-yl)cyclobutane-1-carbonitrile]: the IC50 on LRRK2 G2019S was determined as 2.4 nM.
On the same count and under the same terms, the value for `C[C@@H]1CN(c2cc(-c3n[nH]c4ccnc(NC5(C)CC5)c34)ncn2)C[C@H](C)O1` [Compound 391] was 9.5 nM; that for `FC(F)(F)CNc1nccc2[nH]nc(-c3ccccn3)c12` [Control compound, reference compound] was 12 nM.
Compound `C[C@@H]1CN(c2cc(-c3n[nH]c4ccnc(N[C@@H](C)C(F)(F)F)c34)ncn2)C[C@H](C)O1` [Compound 528] displayed an IC50 against LRRK2 G2019S of 1.6 nM.
Still for that read-out and setting: the value for `C[C@@H]1C[C@@H](Nc2nccc3[nH]nc(-c4cc(N5C[C@H]6C[C@@H]5CO6)ncn4)c23)C[C@H](C)O1` [Compound 440] was 36.5 nM; that for `FC(F)(F)CNc1nccc2[nH]nc(-c3cc(N4C[C@H]5C[C@@H]4CO5)ncn3)c12` [Compound 487] was 2.4 nM; that for `CC(C)n1cc(-c2n[nH]c3ccnc(NCC(F)(F)F)c23)cn1` [Compound 515] was 27.7 nM.
Regarding `C[C@H]1CN(c2cc(-c3n[nH]c4ccnc(N[C@H](C)C(F)(F)F)c34)ncn2)C[C@H](C)O1` [Compound 561], the IC50 on LRRK2 G2019S came to 1.3 nM.
The same measure, in the same setting: the value for `FC(F)(F)CNc1nccc2[nH]nc(-c3cc(N4C5CCC4COC5)ncn3)c12` [Compound 520] was 4.8 nM.
As for `C[C@@H]1CN(c2cc(-c3n[nH]c4ccnc(N[C@H](C)C(F)(F)F)c34)ncn2)C[C@H](C)O1` [Compound 527], the 50% inhibitory concentration (IC50) is 1.2 nM on LRRK2 G2019S, 24.7 nM on LRRK2 [1], 16.3 nM against LRRK2-2019S and 45.9 nM against LRRK2-R1441C. The “inhibition of the phosphorylation of LRRK2 in the brain tissues” value with LRRK2 [2] (30 mg/kg oral gavage, 1 h, LRRK2-G2019S mice, stated as the definition of the maximum effective dose) stood at 60%. For the same compound, the “effective dose for inhibiting the phosphorylation of LRRK2 in the brain tissues” value in the test on LRRK2 [2] (setting [3]) worked out at 10 mg/kg. For the same compound, in the test with LRRK2 [2] (setting [3]), the “maximum effective dose (defined as 60% inhibition of the phosphorylation of LRRK2)” value was determined as 30 mg/kg. For the same compound, the “human equivalent dose corresponding to the effective dose” value in the test on LRRK2 [2] (calculated for a body weight of 70 kg, from 10 mg/kg in mice) is 57 mg. In the test on LRRK2 [2] (calculated for a body weight of 70 kg, from 30 mg/kg in mice), the “human equivalent dose corresponding to the maximum effective dose” value is listed as 171 mg.
Turning to `C[C@@H]1C[C@H](Nc2nccc3[nH]nc(-c4cc(N5C[C@H]6C[C@@H]5CO6)ncn4)c23)C[C@H](C)O1` [Compound 425], the IC50 against LRRK2 G2019S came out at 1.9 nM.
Take `C[C@@H]1C[C@H](Nc2nccc3[nH]nc(-c4cc(N5C[C@@H](C)O[C@@H](C)C5)ncn4)c23)C[C@H](C)O1` [Compound 407, 3-(6-((2S,6R)-2,6-dimethylmorpholinyl)pyrimidin-4-yl)-N-((2R,4R,6S)-2,6-dimethyltetrahydro-2H-pyran-4-yl)-1H-pyrazolo[4,3-c]pyridine-4-amine]: the IC50 against LRRK2 G2019S was 2.2 nM.
The same measure, in the same setting: with `FC(F)(F)CNc1nccc2[nH]nc(-c3cc(N4C[C@@H]5C[C@H]4CO5)ncn3)c12` [Compound 486] the figure was 3.1 nM.

The values above are taken from patent US20250154150A1, “SUBSTITUTED FUSED RING COMPOUND, PHARMACEUTICAL COMPOSITION THEREOF, PREPARATION METHOD THEREFOR AND USES THEREOF” (SUZHOU YABAO PHARMACEUTICAL R&D CO., LTD., priority 2022, published 2025).
